According to ChEMBL document CHEMBL1145579, “Development of potent and selective small-molecule human Urotensin-II antagonists” (Bioorg Med Chem Lett, 2008):

Assays:
[1] = molecular target: Kappa-type opioid receptor (Homo sapiens, UniProt P41145); assay: Agonist activity at kappa opioid receptor; format: functional
[2] = Binding affinity at batrachotoxinin sensitive Sodium channel in rat brain; format: tissue-based
Urotensin-2 receptor = molecular target: T1, Urotensin-2 receptor (Homo sapiens, UniProt Q9UKP6); assay: Displacement of [125I]hU-2 from human recombinant Urotensin 2 receptor expressed in HEK293 cells; format: cell-based
T1 sequence (Q9UKP6 whole entry): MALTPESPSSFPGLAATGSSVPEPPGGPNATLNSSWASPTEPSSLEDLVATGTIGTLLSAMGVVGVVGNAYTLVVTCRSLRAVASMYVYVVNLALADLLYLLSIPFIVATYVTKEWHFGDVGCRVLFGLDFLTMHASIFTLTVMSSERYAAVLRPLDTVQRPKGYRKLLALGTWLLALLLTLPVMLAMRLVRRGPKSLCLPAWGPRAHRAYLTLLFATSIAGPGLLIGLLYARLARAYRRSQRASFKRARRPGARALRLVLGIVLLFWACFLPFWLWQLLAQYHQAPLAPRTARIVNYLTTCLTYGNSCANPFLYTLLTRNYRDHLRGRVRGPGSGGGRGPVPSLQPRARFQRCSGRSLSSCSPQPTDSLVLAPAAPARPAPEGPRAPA

Cytochrome P450 2D6 = Cytochrome P450 2D6 (Homo sapiens, UniProt P10635); assay: Inhibition of CYP2D6; format: ADME
Cytochrome P450 3A4 = Cytochrome P450 3A4 (Homo sapiens, UniProt P08684)
[3] = Cmax in rat at 2 mg/kg, iv and 4 mg/kg, po; format: ADME, organism-based; conditions: in vivo
[4] = Half life in rat at 2 mg/kg, iv and 4 mg/kg, po; format: ADME, organism-based; conditions: in vivo
[5] = molecular target: T2, Urotensin-2 receptor (Rattus norvegicus) (UniProt P49684); assay: Binding affinity at Urotensin 2 receptor in rat aorta.
T2 sequence (whole entry): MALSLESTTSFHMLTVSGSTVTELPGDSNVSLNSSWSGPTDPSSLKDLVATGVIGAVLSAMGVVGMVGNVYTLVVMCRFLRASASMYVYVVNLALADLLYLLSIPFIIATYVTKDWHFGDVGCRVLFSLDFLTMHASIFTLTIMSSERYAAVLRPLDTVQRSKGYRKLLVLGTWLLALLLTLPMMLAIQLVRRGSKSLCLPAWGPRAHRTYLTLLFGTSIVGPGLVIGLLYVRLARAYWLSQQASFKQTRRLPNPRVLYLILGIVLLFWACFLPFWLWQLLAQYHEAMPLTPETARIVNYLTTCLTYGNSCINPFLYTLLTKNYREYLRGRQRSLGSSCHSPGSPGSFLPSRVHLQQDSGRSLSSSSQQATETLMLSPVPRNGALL

[6] = Clearance in rat at 2 mg/kg, iv and 4 mg/kg, po; format: ADME, organism-based; conditions: in vivo
[7] = Volume of distribution at steady state in rat at 2 mg/kg, iv and 4 mg/kg, po; format: ADME, organism-based; conditions: in vivo, read-out: Vdss
[8] = Oral bioavailability in rat at 4 mg/kg, po; format: ADME, organism-based; conditions: in vivo

Sequence of Cytochrome P450 2D6 (P10635 whole entry): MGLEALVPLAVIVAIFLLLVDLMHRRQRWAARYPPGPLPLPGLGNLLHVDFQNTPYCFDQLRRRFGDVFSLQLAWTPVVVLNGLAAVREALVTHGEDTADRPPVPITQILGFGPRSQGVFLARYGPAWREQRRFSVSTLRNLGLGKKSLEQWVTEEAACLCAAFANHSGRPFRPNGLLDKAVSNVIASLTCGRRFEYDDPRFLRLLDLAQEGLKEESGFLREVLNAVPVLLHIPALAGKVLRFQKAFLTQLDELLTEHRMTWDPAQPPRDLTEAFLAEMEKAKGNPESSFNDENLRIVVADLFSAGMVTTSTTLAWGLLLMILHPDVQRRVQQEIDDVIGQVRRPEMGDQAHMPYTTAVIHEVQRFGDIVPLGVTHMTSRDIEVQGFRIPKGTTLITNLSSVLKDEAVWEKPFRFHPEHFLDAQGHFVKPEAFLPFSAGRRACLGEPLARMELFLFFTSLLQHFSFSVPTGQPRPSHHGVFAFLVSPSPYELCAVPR
Sequence of Cytochrome P450 3A4 (P08684 whole entry): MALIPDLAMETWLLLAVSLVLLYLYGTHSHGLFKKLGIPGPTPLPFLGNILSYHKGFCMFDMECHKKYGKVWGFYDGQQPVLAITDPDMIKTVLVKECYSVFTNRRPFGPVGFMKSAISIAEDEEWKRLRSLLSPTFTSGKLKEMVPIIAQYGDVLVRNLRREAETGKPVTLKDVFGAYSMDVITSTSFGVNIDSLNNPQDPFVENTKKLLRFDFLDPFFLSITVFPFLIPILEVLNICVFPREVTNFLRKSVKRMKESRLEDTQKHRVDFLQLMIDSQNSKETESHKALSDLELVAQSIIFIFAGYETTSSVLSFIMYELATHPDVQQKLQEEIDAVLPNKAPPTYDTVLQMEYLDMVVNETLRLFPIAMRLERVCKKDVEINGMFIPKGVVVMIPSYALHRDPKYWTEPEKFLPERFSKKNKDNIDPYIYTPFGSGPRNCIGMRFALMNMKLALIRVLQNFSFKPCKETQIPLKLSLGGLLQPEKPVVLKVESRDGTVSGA
Sequence of Kappa-type opioid receptor (P41145 whole entry): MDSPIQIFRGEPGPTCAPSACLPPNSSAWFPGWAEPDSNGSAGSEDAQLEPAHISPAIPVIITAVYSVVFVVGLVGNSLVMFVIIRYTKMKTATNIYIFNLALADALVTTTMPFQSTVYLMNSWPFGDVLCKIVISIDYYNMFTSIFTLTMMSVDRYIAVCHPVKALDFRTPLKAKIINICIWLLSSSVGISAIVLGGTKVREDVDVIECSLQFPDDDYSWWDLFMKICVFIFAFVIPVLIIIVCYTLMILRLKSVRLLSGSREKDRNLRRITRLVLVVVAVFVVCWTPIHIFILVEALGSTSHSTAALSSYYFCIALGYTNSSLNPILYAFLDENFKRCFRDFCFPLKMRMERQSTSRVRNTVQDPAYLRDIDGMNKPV

SMILES	EC50 [1]	Ki [2]	Ki (Urotensin-2 receptor)	IC50 (Cytochrome P450 2D6)	IC50 (Cytochrome P450 3A4)	Cmax [3]	half-life [4]	Kb [5]	clearance [6]	Vd [7]	bioavailability [8]
O=C1COc2cc(Cl)c(Cl)cc2N1CC(=O)N1CCCC(c2ccccc2)C1CN1CCOCC1 (racemic)	7900 nM	1300 nM	2 nM	4800 nM	730 nM	–	–	–	–	–	–
N#CCN(CC(=O)N1CCCC(c2ccccc2)C1CN1CCCC1)c1ccc(Cl)c(Cl)c1 (racemic)	790 nM	1600 nM	2 nM	2300 nM	1100 nM	120 ng/mL	3.2 h	5 nM	100 mL/min/kg	27 L/kg	12%
O=C(Cn1c(=O)sc2ccc(Cl)cc21)N1CCCC(c2ccccc2)C1CN1CCCC1 (racemic)	1300 nM	330 nM	1.2 nM	1700 nM	1000 nM	–	–	–	–	–	–
Cc1cc2ncc(=O)n(CC(=O)N3CCCC(c4ccccc4)C3CN3CCOCC3)c2cc1C (racemic)	30000 nM	6900 nM	5 nM	6700 nM	2700 nM	–	–	–	–	–	–
O=C1COc2cc(Cl)c(Cl)cc2N1CC(=O)N1CCCC(c2ccccc2)C1CN1CCCC1 (racemic)	500 nM	680 nM	0.4 nM	1600 nM	1800 nM	–	–	–	–	–	–
Cc1cc2c(cc1C)N(CC(=O)N1CCCC(c3ccccc3)C1CN1CCCC1)C(=O)CO2 (racemic)	5000 nM	390 nM	0.4 nM	5100 nM	3900 nM	–	–	–	–	–	–
Cc1cc2ncc(=O)n(CC(=O)N3CCCC(c4ccccc4)C3CN3CCCC3)c2cc1C (racemic)	6300 nM	1400 nM	1 nM	8400 nM	6800 nM	–	–	–	–	–	–
CN(CC(=O)N1CCCC(c2ccccc2)C1CN1CCOCC1)c1ccc(Cl)c(Cl)c1 (racemic)	1000 nM	1600 nM	79 nM	2300 nM	–	–	–	–	–	–	–
O=C(Cn1c(=O)oc2ccc(Cl)cc21)N1CCCC(c2ccccc2)C1CN1CCCC1 (racemic)	5000 nM	150 nM	5 nM	2200 nM	2100 nM	–	–	–	–	–	–
COCCN(CC(=O)N1CCCC(c2ccccc2)C1CN1CCOCC1)c1ccc(Cl)c(Cl)c1 (racemic)	10000 nM	3200 nM	130 nM	3200 nM	480 nM	–	–	–	–	–	–
O=C(Cn1c(=O)cnc2cc(Cl)c(Cl)cc21)N1CCCC(c2ccccc2)C1CN1CCCC1 (racemic)	3200 nM	930 nM	0.6 nM	2900 nM	1200 nM	–	–	–	–	–	–
O=C(Cn1c(=O)cnc2cc(Cl)c(Cl)cc21)N1CCCC(c2ccccc2)C1CN1CCOCC1 (racemic)	15000 nM	18000 nM	3 nM	21000 nM	1000 nM	–	–	–	–	–	–
O=C(Cn1c(=O)oc2ccc(Cl)cc21)N1CCCC(c2ccccc2)C1CN1CCOCC1 (racemic)	1300 nM	730 nM	40 nM	3500 nM	1300 nM	–	–	–	–	–	–
O=C(Cn1c(=O)sc2ccc(Cl)cc21)N1CCCC(c2ccccc2)C1CN1CCOCC1 (racemic)	7900 nM	3500 nM	6 nM	8000 nM	680 nM	160 ng/mL	5 h	–	130 mL/min/kg	26 L/kg	< 1%
CN(CC(=O)N1CCCC(c2ccccc2)C1CN1CCCC1)c1ccc(Cl)c(Cl)c1 (racemic)	3200 nM	2500 nM	16 nM	750 nM	1400 nM	100 ng/mL	3.8 h	28 nM	97 mL/min/kg	23 L/kg	0%
N#CCN(CC(=O)N1CCCC(c2ccccc2)C1CN1CCOCC1)c1ccc(Cl)c(Cl)c1 (racemic)	5000 nM	4000 nM	6 nM	3700 nM	490 nM	370 ng/mL	2.6 h	–	60 mL/min/kg	8 L/kg	7%
COCCN(CC(=O)N1CCCC(c2ccccc2)C1CN1CCCC1)c1ccc(Cl)c(Cl)c1 (stereo not given)	1000 nM	960 nM	8 nM	820 nM	–	95 ng/mL	2.8 h	–	120 mL/min/kg	27 L/kg	30%
